Experimental findings from patent US6465187B1, “Method of treatment” (Innoventus Project AB, priority 2000, dated 2002) are described below.

Test [1] concerns A1 gene. In words: RNAse Protection Assay (RPA) of A1 gene expression in MCP5/L mast cells. The class given is cell-based, mouse.
Description: Activation of mast cells in vitro. For FcεRI-dependent activation, MCP5/L cells were resuspended at 1×10^6 cells/ml and sensitized using a monoclonal murine IgE anti-TNP (trinitrophenyl) (IgEl-b4, ATCC, Manassas, Va.) antibody (15% hybridoma supernatant) for 90 min. The cells were washed twice with warm medium, followed by challenge with 1 μg/ml TNP-BSA for time periods indicated. For cell viability assays, both the anitbody sensitization and the anitgen challenge were performed in RPMI medium supplemented with 0.5% BSA (Sigma) at 37° C. in a humidified incubator containing 5% CO2. For gene regulation studies, all the incubations were carried out in RPMI medium supplemented with 5% fetal bovine serum and antibiotics on a rocker platform. In some experiments, cells were cross-linked in the medium containing 1 mM EDTA or cells were incubated in ice-cold water during FcεRI cross-linking. Where indicated, various inhibitors were introduced to test their effects on A1 regulation after FcεRI cross-linking. These include bisindolylmaleimid (100 nM), wortmannin (100 nM), SB 203580 (pyridinylimidazole compound, inhibitor of p 38 mitogen-activated protein kinase) (1 μM), PD 98059 (2-(2-amino-3-methoxyphenyl)-4-oxo-4H-[1]benzopyran, inhibitor of mitogen-activated protein kinase Kinase-1 (MEK1)) (10 μM), genistein (1 μM), suramin (100 μM), cyclosporin A (2 μg/ml), dexamethasone (1 μM) and cycloheximide (10 μg/ml). Dexamethasone and suramin were added 14 hr and 24 hr, respectively, before IgE sensitization. All the other inhibitors were added at the same time as FcεRI aggregation. […]
Isolation of RNA and RNAse Protection Assay (RPA) analysis. […] Pixel intensity was determined using a phosphoimaging device. Levels of each gene transcript were quantified by MacBas V2.2 (Fuji Photo Film Co. Ltd., Japan). […]
In test [2] the test system is MCP5/L cells. As to conditions: IgE-receptor cross-linkage 30 min, various concentrations of EDTA, FIG. 8B.
Description: Activation of mast cells in vitro. For FcεRI-dependent activation, MCP5/L cells were resuspended at 1×10^6 cells/ml and sensitized using a monoclonal murine IgE anti-TNP (trinitrophenyl) (IgEl-b4, ATCC, Manassas, Va.) antibody (15% hybridoma supernatant) for 90 min. The cells were washed twice with warm medium, followed by challenge with 1 μg/ml TNP-BSA for time periods indicated. For cell viability assays, both the anitbody sensitization and the anitgen challenge were performed in RPMI medium supplemented with 0.5% BSA (Sigma) at 37° C. in a humidified incubator containing 5% CO2. […]
Measurement of release. […] The reaction was stopped by adding glycine (0.2 M, pH 10.7) into each well and the absorbance was measured. Percentage of β-hexosaminidase release is calculated as the absorbance of the supernatant over that of the combination of supernatant and lysate. […]
Effects of cold incubation and EDTA treatment on A1 induction and mast cell degranulation. […] (B) and (C) levels of β-hexosaminidase (β-hex) in the supernatants from either control cells or cells stimulated through IgE-receptor cross-linkage for 30 min, in the absence or presence of various concentrations of EDTA (B), or in cold incubation (C), were determined as a measurement of activation and de-granulation by an enzymatic colorimetric assay
For test [3], the system named is MCP5/L cells. In words: Cell viability by trypan blue exclusion in medium deprived of serum and growth factors. The class given is cell-based, mouse. As to conditions: 4 days in medium deprived of serum and growth factors, FIG. 7.
Description: The growth factor dependent mouse mast cell line MCP5/L was maintained in the same medium described above. For cell viability assays, the cell suspension was mixed with the vital dye, trypan blue, and only the number of live cells was scored.
For cell viability assays, both the anitbody sensitization and the anitgen challenge were performed in RPMI medium supplemented with 0.5% BSA (Sigma) at 37° C. in a humidified incubator containing 5% CO2.
Cell viability measurement. Trypan blue exclusion assay was used in all of the cell survival experiments. In brief, cell suspension was mixed with the vital dye, trypan blue, and the number of live cells was scored.

Like-named read-outs stand apart in the source and are kept apart here.

Turning to `O=C(O)CN(CCN(CC(=O)O)CC(=O)O)CC(=O)O` [EDTA], in test [1], the “A1 induction by FcεRI aggregation in the presence of inhibitor” value was “blocked A1 expression”. Besides, in test [2], the “β-hexosaminidase release following FcεRI aggregation in the presence of the compound” value is “inhibit release of mast cell granular enzyme β-hexosaminidase”.
For `C[C@@H]1C[C@@H]([C@H](O)CC2CC(=O)NC(=O)C2)C(=O)[C@@H](C)C1` [cycloheximide], the “A1 induction by FcεRI aggregation in the presence of inhibitor” value in test [1] (MCP5/L cells, FcεRI crosslinkage 6 hr, wortmannin 100 nM, cyclosporin A 2 μg/ml, cycloheximide 10 μg/ml, dexamethasone 1 μM, EDTA 1 mM, FIG. 8A, 9) is “could completely block A1 induction”.
Regarding `C[C@H](CCC(=O)O)C[C@H](C)C[C@H](C)C(=O)/C=C(\O)[C@H](C)C[C@H](C)C/C=C/[C@@H](C)[C@@H](O)[C@@H](C)[C@@H](O)C[C@@H]1CC[C@@](C)([C@H]2CC[C@@](C)([C@@H](C)O)O2)O1` [ionomycin], the “A1 gene expression (transcription) induced by the compound alone” value in test [1] (MCP5/L cells exposed for 6 hr, c48/80 at concentrations of up to 1 mg/ml, FIG. 7) was “induced expression of A1”. Moreover, the “Survival of mast cells treated with the compound” value in test [3] is given as “promoted mast cell survival”.
